From patent US20220169632A1, “METHODS AND MATERIALS FOR INCREASING OR MAINTAINING NICOTINAMIDE MONONUCLEOTIDE ADENYLYL TRANSFERASE-2 (NMNAT2) POLYPEPTIDE LEVELS” (University of Pittsburgh - Of the Commonwealth System of …, priority 2019, published 2022)

The compounds below were run on NMNAT2 (assay: NMNAT2-Hibit nano-luciferase activity in transfected U87MG cells, 5 μM, 48 hours). Details: NMNAT2-Hibit luciferase plasmid, 48 hours (Table D).
Assay type: cell-based
Method: Selected compounds were tested in vitro. Briefly, U87MG cells were transfected with NMNAT2-Hibit luciferase plasmid. Cells were treated with test compound at 5 μM for 48 hours. Cells were then collected and assayed for nano-luciferase activity.

Row | Structure (SMILES) | D: compound efficacy for NMNAT2 activation; increase in NMNAT2 luciferase activity
1 | COCCNC(=O)Cn1cc(C(=O)c2ccccc2)c2ccccc21 [BC181214] | + (“+” <20% increase in NMNAT2 luciferase activity.)
2 | O=C(Cn1cc(C(=O)C2CCCCC2)c2ccccc21)NCCc1ccccc1 [BC181222] | ++ (“++” >20% and <100% increase in NMNAT2 luciferase activity.)
3 | Cc1ccccc1Cn1cc(CCC(=O)NCc2ccco2)c2ccccc21 [BC181243] | ++ (“++” >20% and <100% increase in NMNAT2 luciferase activity.)
4 | CCc1cccc2c(C(=O)C(=O)NCCc3ccccc3)cn(Cc3ccccc3)c12 [BC181228] | + (“+” <20% increase in NMNAT2 luciferase activity.)
5 | Cc1ccc(Cn2cc(C(CC(=O)NCc3ccco3)c3ccc(C)cc3)c3ccccc32)cc1 (stereo not drawn) [BC181262] | ++ (“++” >20% and <100% increase in NMNAT2 luciferase activity.)
6 | O=C(Cn1cc(C(=O)C2CCCCC2)c2ccccc21)NCc1ccco1 [BC181220] | +++ (“+++” >100% increase in NMNAT2 luciferase activity.)
7 | CC1CCCCN1C(=O)Cn1cc(C(=O)c2ccccc2)c2ccccc21 (stereo not drawn) [BC181218] | + (“+” <20% increase in NMNAT2 luciferase activity.)
8 | Cc1ccc(Cn2cc(CCCC(=O)NC(C)C)c3ccccc32)cc1 [BC181232] | + (“+” <20% increase in NMNAT2 luciferase activity.)
9 | Cc1ccc(Cn2cc(CCC(=O)NCC3=CC=CC3)c3ccccc32)cc1 [BC181239] | + (“+” <20% increase in NMNAT2 luciferase activity.)
10 | Cc1ccc(Cn2cc(C(CC(=O)NCc3ccco3)c3ccc(C)cc3)c3ccccc32)cc1 (stereo not drawn) [BC181258] | ++ (“++” >20% and <100% increase in NMNAT2 luciferase activity.)
11 | O=C(Cn1cc(C(=O)c2ccncc2)c(=O)c2cc(Br)ccc21)NCc1ccccc1 [BC181256] | + (“+” <20% increase in NMNAT2 luciferase activity.)
12 | Cc1ccc(NC(=O)Cn2cc(C(=O)c3ccccc3)c3ccccc32)cc1 [BC181209] | + (“+” <20% increase in NMNAT2 luciferase activity.)
13 | O=C(Cn1cc(C(=O)c2ccccc2)c2ccccc21)NCC1=CC=CC1 [BC181207] | ++ (“++” >20% and <100% increase in NMNAT2 luciferase activity.)
14 | COc1ccc(NC(=O)Cn2cc(C(=O)c3ccccc3)c3ccccc32)cc1 [BC181213] | + (“+” <20% increase in NMNAT2 luciferase activity.)
15 | Cc1cc2c(=O)c(C(=O)c3ccncc3)cn(CC(=O)NCc3ccccc3)c2cc1C [BC181254] | ++ (“++” >20% and <100% increase in NMNAT2 luciferase activity.)
16 | CC(=O)c1cn(CC(=O)NCCn2ccc3ccc(C)cc32)c2ccccc12 [BC181268] | ++ (“++” >20% and <100% increase in NMNAT2 luciferase activity.)
17 | O=C(Cn1cc(C(=O)C2=CC=CC2)c2ccccc21)NCc1ccccc1 [BC181204] | ++ (“++” >20% and <100% increase in NMNAT2 luciferase activity.)
18 | O=C(Cn1cc(C(=O)c2ccccc2)c2ccccc21)Nc1ccc(Br)cc1 [BC181215] | + (“+” <20% increase in NMNAT2 luciferase activity.)

Row | Structure (SMILES) | D: compound efficacy for NMNAT2 activation; increase in NMNAT2 luciferase activity
19 | Cc1ccc2c(c1)c(=O)c(C(=O)c1ccncc1)cn2CC(=O)NCc1ccccc1 [BC181249] | + (“+” <20% increase in NMNAT2 luciferase activity.)
20 | CCC(=O)c1cn(CC(=O)NCc2cccnc2)c2ccccc12 [BC181226] | + (“+” <20% increase in NMNAT2 luciferase activity.)
21 | Cc1c(C)n(Cc2ccccc2)c2ccc(C(=O)NCc3ccco3)cc12 [BC181247] | +++ (“+++” >100% increase in NMNAT2 luciferase activity.)
22 | Cc1ccc(Cn2cc(C(CC(=O)NCc3ccco3)C(C)C)c3ccccc32)cc1 (stereo not drawn) [BC181265] | + (“+” <20% increase in NMNAT2 luciferase activity.)
23 | Cc1ccc(CNC(=O)Cn2cc(C(=O)c3ccncc3)c(=O)c3cc(C)c(C)cc32)cc1 [BC181255] | + (“+” <20% increase in NMNAT2 luciferase activity.)
24 | Cc1ccccc1Cn1cc(CCC(=O)NCC2=CC=CC2)c2ccccc21 [BC181244] | ++ (“++” >20% and <100% increase in NMNAT2 luciferase activity.)
25 | O=C(Cn1cc(C(=O)C2CCCCC2)c2ccccc21)NCc1ccccc1 [BC181221] | + (“+” <20% increase in NMNAT2 luciferase activity.)
26 | O=C(CC(CCc1ccccc1)c1cn(Cc2ccccc2)c2ccccc12)NCc1ccco1 (stereo not drawn) [BC181264] | + (“+” <20% increase in NMNAT2 luciferase activity.)
27 | COc1ccc(C(CC(=O)NCc2ccco2)c2cn(Cc3ccc(C)cc3)c3ccccc23)cc1 (stereo not drawn) [BC181261] | ++ (“++” >20% and <100% increase in NMNAT2 luciferase activity.)
28 | CCCNC(=O)CCCc1cn(Cc2ccc(C)cc2)c2ccccc12 [BC181233] | + (“+” <20% increase in NMNAT2 luciferase activity.)
29 | O=C(Cn1cc(C(=O)c2ccccc2)c2ccccc21)NCc1ccc2c(c1)OCCCO2 [BC181257] | + (“+” <20% increase in NMNAT2 luciferase activity.)
30 | CC1CCCC(C)N1C(=O)Cn1cc(C(=O)c2ccccc2)c2ccccc21 (stereo not drawn) [BC181219] | ++ (“++” >20% and <100% increase in NMNAT2 luciferase activity.)
31 | Cc1ccc2c(c1)c(=O)c(C(=O)c1ccncc1)cn2CC(=O)NCc1ccc(F)cc1 [BC181252] | ++ (“++” >20% and <100% increase in NMNAT2 luciferase activity.)
32 | CC(NC(=O)Cn1cc(C(=O)c2ccccc2)c2ccccc21)c1ccccc1 (stereo not drawn) [BC181224] | + (“+” <20% increase in NMNAT2 luciferase activity.)
33 | Cc1ccccc1Cn1cc(CCC(=O)NCC2=CC=CC2)c2ccccc21 [BC181242] | + (“+” <20% increase in NMNAT2 luciferase activity.)
34 | O=C(Cn1cc(C(=O)C2CC2)c2ccccc21)NCc1ccccc1 [BC181203] | ++ (“++” >20% and <100% increase in NMNAT2 luciferase activity.)
35 | Cc1ccc(C)c(Cn2cc(CCC(=O)NCc3ccco3)c3ccccc32)c1 [BC181245] | ++ (“++” >20% and <100% increase in NMNAT2 luciferase activity.)
36 | O=C(Cn1cc(C(=O)c2ccccc2)c2ccccc21)NCc1ccc2c(c1)OCO2 [BC181216] | + (“+” <20% increase in NMNAT2 luciferase activity.)
